“Also recorded” adds a separate entry of the source.
What was measured:
KRAS^G12D = assay: Cell signaling (Western) in BHK cells expressing KRAS G12D; format: cell-based, hamster; details: BHK KRAS^G12D
Description: (§1) Cell signaling. The inhibitory potential of compounds was tested in monoclonal Baby Hamster Kidney (BHK) cell lines stably expressing monomeric green fluorescence protein (mGFP)-tagged KRAS^G12D, K-Ras^G12V and HRAS^G12V. Cells were cultured in Dulbecco's Modified Eagle Medium (DMEM, Hyclone) supplemented with 10% v/v bovine calf serum and incubated with compound or vehicle (DMSO) for 3 h without serum. Cells were then harvested in lysis buffer (50 mM Tris (pH 7.5), 75 mM NaCl, 25 mM NaF, 5 mM MgCl2, 5 mM EGTA, 1 mM dithiothreitol, 100 μM NaVO4, 1% Nonidet P40 plus protease inhibitors) and subjected to Western analysis controlling protein loading by BCA (bicinchoninic acid) assay. Lysates were resolved with Bio-Rad polyacrylamide TGX 10% gel, transferred to polyvinylidene fluoride (PVDF) membrane and immunoblotted using pan-AKT (2920S), GFP (2956S), pAKT^S473 (4060L), p-cRaf^S338 (9427S), p-ERK^T202/Y204 (4370L), ERK1/2 (4695S) or β-actin antibodies (Cell Signaling Technology). IC50 values were calculated with Prism 4-parameter fit.
Cell signaling assays identify compound 11 as a promising initial hit Western analysis was used to quickly assess the potential impact of the predicted hits on MAPK signaling, a major pathway mediated by KRAS. Specifically, ERK1/2 phosphorylation levels (p-ERK) were monitored in BHK cells stably expressing KRAS^G12D treated with vehicle (DMSO), the MEK inhibitor […] (U) or compound at four different concentrations (1-100 μM). […] Compounds 9 and 11 (structures for compounds 1-11 are provided in Appendix I, attached hereto), on the other hand, decreased p-ERK levels at concentrations ≥50 μM and ≥5 μM, respectively. To verify the latter observation, the experiments were repeated in an expanded concentration range starting from 0.1 μM. […] However, compound 9 (see Appendix I, attached hereto) increased p-ERK levels at 25 and 38 μM in contrast to the decrease observed at higher concentrations (FIG. S1B; see Appendix I, attached hereto).

lung cancer cells = assay: Cell proliferation (CyQuant), lung cancer cells overall; format: cell-based
Text: (FIG. 5A) Chemical structure of compounds 12, an analogue of 11 lacking the terminal methyl alcohol functional group. (FIG. 5B) Predicted binding pose of compound 12. (FIG. 5C) p-ERK and p-cRaf levels in BHK cells expressing KRAS^G12D treated with indicated concentrations of compound 12 or vehicle. (FIG. 5D) Proliferation profile of lung cancer cells upon treatment with increasing concentration of compound 12, monitored by a CyQuant assay. Data are averages over three independent experiments and error bars represent standard error. (FIG. 5E) GFP fluorescence lifetime from FLIM-FRET using cells expressing GFP-KRAS^G12D alone or together with RFP-cRaf, with or without treatment with 2 μM compound 12.
Cell proliferation. Potential effect of the ligands on cancer cell proliferation was tested in three lung cancer cells: SKLU-1, H1975 and H522. Cells were plated at ˜1,000 cell per well in a 96-well plate and maintained in full serum media with or without compound at 37° C. for 72 h changing the media with the compound every 24 h. Media with compound was prepared by serial dilution at concentrations indicated. Then cells were washed with PBS and frozen at −80° C. for a minimum of 24 h. Plates were thawed and CyQuant™ dye (in lysis buffer provided in the CyQuant™ cell proliferation assay kit, Invitrogen™) was added, and after a five-minute incubation, fluorescence (excitation: 480 nm emission: 520 nm) was measured with a Tecan Infinite M200 plate reader.

[1] = target: T1, KRAS^G12D-cRaf interaction (Homo sapiens, UniProt P01116, G12D); assay: FLIM-FRET of GFP-KRAS G12D and RFP-cRaf in BHK cells; format: cell-based, hamster; details: 2 μM
T1 construct: expressed in transfected cells; host or cells: BHK (baby hamster kidney) cells, transient expression
Text: [formula] where P1 is polarization of free KRAS, P2 is polarization of Raf-bound KRAS, c is the total concentration of KRAS, and x the total concentration of Raf^RBD. (FIG. 2B) Amount of GFP-KRAS^G12D pulled down by GST-Raf^RBD after treatment of cell lysates with compound at the concentrations indicated (representative Westerns are shown at the top). The RBD sequence length was 1-149 and 51-131 in the fluorescence polarization and pull-down assays, respectively. (FIG. 2C) GFP fluorescence lifetime from FLIM-FRET using cells expressing GFP-KRAS^G12D alone or with RFP-Raf, with or without treatment by 1 μM compound 11. Data are shown as mean±S.E; significance estimated by one-way analysis of variance.
Fluorescence lifetime imaging (FLIM)-fluorescence resonance energy transfer (FRET). FLIM-FRET experiments were carried out using a lifetime fluorescence imaging attachment (Lambert Instruments, The Netherlands) on an inverted microscope (43). BHK cells transiently expressing mGFP-tagged KRAS^G12D (donor), alone or with mRFP-tagged cRaf^WT (acceptor) (using 1:5 ratio), were prepared as indicated in each experiment. The samples were excited using a sinusoidally modulated 3 W 470 nm light-emitting diode at 40 MHz under epi-illumination. Fluorescein was used as a lifetime reference standard. […] The phase and modulation were determined from 12 phase settings using the manufacturer's software. […]

[2] = Solubility in DMSO and common solvents; format: physicochemical; details: DMSO
HRAS^G12V = assay: Cell signaling (Western) in BHK cells expressing HRAS G12V; format: cell-based, hamster; details: 10 μM
Description: as §1

Row | KRAS-Raf interaction (FLIM-FRET) [1] | SMILES | concentration at which p-ERK levels are decreased (KRAS^G12D) [µM] | effect on p-cRaf levels (KRAS^G12D) | inhibition of cell proliferation relative to compound 11 (lung cancer cells) | selectivity between KRAS mutant and KRAS^WT lung cancer cells (lung cancer cells) | solubility [2] | effect on MAPK signaling (HRAS^G12V)
1 | does not affect | Cc1nn2c(N3CCN(C)CC3)cc(-c3ccccc3)nc2c1-c1ccccc1 [Compound 12] | 2 | no effect | somewhat less effective | better selectively profile | less soluble; also recorded: solubility issues | –
2 | – | N#CC(=C(/N)Sc1ccccc1N)/C(C#N)=C(\N)Sc1ccccc1N [Compound U0126, reference compound] | – | – | – | – | – | almost completely abolished
